In PMC10053925, “Virtual Screening of Novel 24-Dehydroxysterol Reductase (DHCR24) Inhibitors and the Biological Evaluation of Irbesartan in Cholesterol-Lowering Effect” (Molecules, 2023):
pIC50: −log10 of the molar value.

Experiments:
[1] = target: T1, 3β-hydroxysterol-Δ(24)-reductase (DHCR24) (Homo sapiens, UniProt Q15392); assay: immune complex-activity assay; HPLC of desmosterol to cholesterol conversion; type: biochemical
T1 construct: DHCR24 immunoprecipitated from HepG2 cells infected with Ad-cmv-DHCR24 (antibody-DHCR24 complex)
T1 sequence (Q15392 23-516): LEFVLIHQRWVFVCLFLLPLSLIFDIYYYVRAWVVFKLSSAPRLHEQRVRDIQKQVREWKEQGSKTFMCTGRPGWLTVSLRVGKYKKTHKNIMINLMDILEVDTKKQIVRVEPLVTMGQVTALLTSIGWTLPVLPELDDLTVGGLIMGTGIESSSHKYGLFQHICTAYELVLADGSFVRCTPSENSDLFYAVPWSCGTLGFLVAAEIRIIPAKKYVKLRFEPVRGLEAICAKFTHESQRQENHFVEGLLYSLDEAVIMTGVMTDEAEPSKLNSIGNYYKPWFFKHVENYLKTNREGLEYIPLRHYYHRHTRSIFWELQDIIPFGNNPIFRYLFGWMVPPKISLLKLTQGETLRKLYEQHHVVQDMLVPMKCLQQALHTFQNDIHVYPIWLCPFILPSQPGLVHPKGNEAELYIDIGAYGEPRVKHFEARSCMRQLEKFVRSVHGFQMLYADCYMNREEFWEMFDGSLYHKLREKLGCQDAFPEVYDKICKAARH

[2] = target: T1, 3β-hydroxysterol-Δ(24)-reductase (DHCR24); assay: in vitro turnover to cholesterol by immunoprecipitated DHCR24, HPLC; type: biochemical

pIC50 [1] | Structure (SMILES) | in vitro turnover to cholesterol by immunoprecipitated DHCR24, HPLC [2]
6.22 | CCCCC1=NC2(CCCC2)C(=O)N1Cc1ccc(-c2ccccc2-c2nnn[nH]2)cc1 [IRB, Irbesartan] | –
– | CC(C)=CCC[C@@H](C)[C@H]1CC[C@H]2[C@@H]3CC=C4C[C@@H](O)CC[C@]4(C)[C@H]3CC[C@]12C [DES, desmosterol] | desmosterol in the system can be catalyzed into cholesterol only in the presence of the DHCR24 enzyme
